Test results from patent publication US20230167070A1, “MODULATORS OF TREX1” (Constellation Pharmaceuticals, Inc., priority 2020, published 2023).
pIC50: −log10 of the molar value.

Legend:
full length human TREX1 = target: T1, full length human TREX1 (Homo sapiens, UniProt Q9NSU2); experiment: TREX1 Biochemical Assay (fluorescence, dsDNA substrate degradation); details: 150 pM TREX1, 60 nM dsDNA substrate, 25 minutes at room temperature
T1 construct: N-terminally His-Tev tagged full length human TREX1; made in house; host or cells: E. coli
T1 sequence (Q9NSU2 1-314): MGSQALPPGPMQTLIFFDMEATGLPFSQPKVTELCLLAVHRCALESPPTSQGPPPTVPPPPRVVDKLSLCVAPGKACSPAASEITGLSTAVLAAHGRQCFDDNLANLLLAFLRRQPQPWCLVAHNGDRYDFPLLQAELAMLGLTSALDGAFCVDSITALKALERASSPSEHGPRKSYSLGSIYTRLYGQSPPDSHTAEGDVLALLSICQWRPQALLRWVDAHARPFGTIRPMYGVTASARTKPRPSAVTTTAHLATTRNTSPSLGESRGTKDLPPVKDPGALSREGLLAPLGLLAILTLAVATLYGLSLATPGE
Method: Degradation of the dsDNA liberates free fluorophore to produce a fluorescent signal. Specifically, 7.5 μL of N-terminally His-Tev tagged full length human TREX1 (expressed in E. coli and purified in house) in reaction buffer (50 mM Tris (pH 7.4), 150 mM NaCl, 2 mM DTT, 0.1 mg/mL BSA, 0.01% (v/v) Tween-20 and 100 mM MgCl2) was added to a 384-well Black ProxiPlate Plus (Perkin Elmer) which already contained compound (150 nL) at varying concentrations as a 10 point dose-response in DMSO. To this was added 7.5 μL of dsDNA substrate (Strand A: 5′ TEX615/GCT AGG CAG 3′; Strand B: 5′ CTG CCT AGC/IAbRQSp (Integrated DNA Technologies)) in reaction buffer. Final concentrations were 150 pM TREX1, 60 nM dsDNA substrate in reaction buffer with 1.0% DMSO (v/v). After 25 minutes at room temperature, reactions were quenched by the addition of 5 μL of stop buffer (same as reaction buffer plus 200 mM EDTA). Final concentrations in the quenched reaction were 112.5 pM TREX1, 45 nM DNA and 50 mM EDTA in a volume of 20 μL. After a 5-minute incubation at room temperature, plates were read in a laser sourced Envision (Perkin-Elmer), measuring fluorescence at 615 nm following excitation w/570 nm light. IC50 values were calculated by comparing the measured fluorescence at 615 nm ratio relative to control wells pre-quenched w/stop buffer (100% inhibition) and no inhibitor (0% inhibition) controls as using non-linear least square four parameter fits and either Genedata or GraphPad Prism (GraphPad Software, Inc.).

[1] = target: T2, human TREX2 (residues M44-A279) (Homo sapiens, UniProt Q9BQ50); experiment: TREX2 Biochemical Assay (fluorescence, dsDNA substrate degradation); details: 2.5 nM TREX2, 60 nM dsDNA substrate, 25 minutes at room temperature
T2 construct: human TREX2 (residues M44-A279, expressed in E. coli); made in house; host or cells: E. coli
T2 sequence (Q9BQ50 44-279 isoform Q9BQ50-1): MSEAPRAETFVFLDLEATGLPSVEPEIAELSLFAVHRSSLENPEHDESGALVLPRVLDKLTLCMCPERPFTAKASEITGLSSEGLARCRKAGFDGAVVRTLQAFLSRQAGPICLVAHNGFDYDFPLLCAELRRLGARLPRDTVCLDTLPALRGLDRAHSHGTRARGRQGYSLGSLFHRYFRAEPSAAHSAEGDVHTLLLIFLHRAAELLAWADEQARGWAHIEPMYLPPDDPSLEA
Method: Degradation of the dsDNA liberates free fluorophore to produce a fluorescent signal. Specifically, 7.5 μL of N-terminally His-Tev tagged human TREX2 (residues M44-A279, expressed in E. coli and purified in house) in reaction buffer (50 mM Tris (pH 7.4), 150 mM NaCl, 2 mM DTT, 0.1 mg/mL BSA, 0.01% (v/v) Tween-20 and 100 mM MgCl2) was added to a 384-well Black ProxiPlate Plus (Perkin Elmer) which already contained compound (150 nL) at varying concentrations as a 10 point dose-response in DMSO. To this was added 7.5 μL of dsDNA substrate (Strand A: 5′ TEX615/GCT AGG CAG 3′; Strand B: 5′ CTG CCT AGC/IAbRQSp (IDT)) in reaction buffer. Final concentrations were 2.5 nM TREX2, 60 nM dsDNA substrate in reaction buffer with 1.0% DMSO (v/v). After 25 minutes at room temperature, reactions were quenched by the addition of 5 μL of stop buffer (same as reaction buffer plus 200 mM EDTA). Final concentrations in the quenched reaction mixture were […] TREX2, 45 nM DNA and 50 mM EDTA in a volume of 20 μL. After a 5-minute incubation at room temperature, plates were read in a laser sourced Envision (Perkin-Elmer), measuring fluorescence at 615 nm following excitation w/570 nm light. IC50 values were calculated by comparing the measured fluorescence at 615 nm ratio relative to control wells pre-quenched w/stop buffer (100% inhibition) and no inhibitor (0% inhibition) controls as using non-linear least square four parameter fits and either Genedata or GraphPad Prism (GraphPad Software, Inc.).

pIC50 (full length human TREX1)	pIC50 [1]	SMILES
5.00 to 6.00	4.00 to 5.00	CN(c1nc(C(=O)NC2CC(F)(F)C2)c(O)c(=O)n1C)C(c1ccccc1)c1ccccc1 [Example 2, 2-(benzhydryl(methyl)amino)-N-(3,3-difluorocyclobutyl)-5-hydroxy-1-methyl-6-oxo-1,6-dihydropyrimidine-4-carboxamide]
5.00 to 6.00	5.00 to 6.00	CN(c1nc(C(=O)Nc2cnnn2C)c(O)c(=O)n1C)C(c1ccccc1)c1ccccc1 [Example 34, 2-(benzhydryl(methyl)amino)-5-hydroxy-1-methyl-N-(1-methyl-1H-1,2,3-triazol-5-yl)-6-oxo-1,6-dihydropyrimidine-4-carboxamide]
> 7.00	5.00 to 6.00	Cc1nocc1NC(=O)c1nc(N(C)C(c2ccccc2)c2ccccc2)n(C)c(=O)c1O [Example 32, 2-(benzhydryl(methyl)amino)-5-hydroxy-1-methyl-N-(3-methylisoxazol-4-yl)-6-oxo-1,6-dihydropyrimidine-4-carboxamide]
5.00 to 6.00	4.00 to 5.00	CN(c1nc(C(=O)Nc2ccnn2C)c(O)c(=O)n1C)C(c1ccccc1)c1ccccc1 [Example 35, 2-(benzhydryl(methyl)amino)-5-hydroxy-1-methyl-N-(1-methyl-1H-pyrazol-5-yl)-6-oxo-1,6-dihydropyrimidine-4-carboxamide]
5.00 to 6.00	4.00 to 5.00	Cc1onc(NC(=O)c2nc(N(C)C(c3ccccc3)c3ccccc3)n(C)c(=O)c2O)c1C [Example 37, 2-(benzhydryl(methyl)amino)-N-(4,5-dimethylisoxazol-3-yl)-5-hydroxy-1-methyl-6-oxo-1,6-dihydropyrimidine-4-carboxamide]
5.00 to 6.00	4.00 to 5.00	CN(c1nc(C(=O)NC2CCC2)c(O)c(=O)n1C)C(c1ccccc1)c1ccccc1 [Example 7, 2-(benzhydryl(methyl)amino)-N-cyclobutyl-5-hydroxy-1-methyl-6-oxo-1,6-dihydropyrimidine-4-carboxamide]
6.00 to 7.00	4.00 to 5.00	CN(c1nc(C(=O)Nc2ccon2)c(O)c(=O)n1C)C(c1ccccc1)c1ccccc1 [Example 39, 2-(benzhydryl(methyl)amino)-5-hydroxy-N-(isoxazol-3-yl)-1-methyl-6-oxo-1,6-dihydropyrimidine-4-carboxamide]

Continued, molecule first:

SMILES	pIC50 (full length human TREX1)	pIC50 [1]
CN(c1nc(C(=O)Nc2nnco2)c(O)c(=O)n1C)C(c1ccccc1)c1ccccc1 [Example 38, 2-(benzhydryl(methyl)amino)-5-hydroxy-1-methyl-N-(1,3,4-oxadiazol-2-yl)-6-oxo-1,6-dihydropyrimidine-4-carboxamide]	5.00 to 6.00	4.00 to 5.00
CN(c1nc(C(=O)NCC2CC2)c(O)c(=O)n1C)C(c1ccccc1)c1ccccc1 [Example 14, 2-(benzhydryl(methyl)amino)-N-(cyclopropylmethyl)-5-hydroxy-1-methyl-6-oxo-1,6-dihydropyrimidine-4-carboxamide]	6.00 to 7.00	5.00 to 6.00
CN(c1nc(C(=O)Nc2ccc(C(F)(F)F)cc2)c(O)c(=O)n1C)C(c1ccccc1)c1ccccc1 [Example 28, 2-(benzhydryl(methyl)amino)-5-hydroxy-1-methyl-6-oxo-N-(4-(trifluoromethyl)phenyl)-1,6-dihydropyrimidine-4-carboxamide]	< 5.00	4.00 to 5.00
CN(c1nc(C(=O)NC2CC=CC2)c(O)c(=O)n1C)C(c1ccccc1)c1ccccc1 [Example 6, 2-(benzhydryl(methyl)amino)-N-(cyclopent-3-en-1-yl)-5-hydroxy-1-methyl-6-oxo-1,6-dihydropyrimidine-4-carboxamide]	5.00 to 6.00	4.00 to 5.00
CNC(=O)c1nc(N(C)C(c2ccccc2)c2ccccc2)n(C)c(=O)c1O [Example 12, 2-(benzhydryl(methyl)amino)-5-hydroxy-N,1-dimethyl-6-oxo-1,6-dihydropyrimidine-4-carboxamide]	< 5.00	4.00 to 5.00
C=CCNC(=O)c1nc(N(C)C(c2ccccc2)c2ccccc2)n(C)c(=O)c1O [Example 8, N-allyl-2-(benzhydryl(methyl)amino)-5-hydroxy-1-methyl-6-oxo-1,6-dihydropyrimidine-4-carboxamide]	5.00 to 6.00	5.00 to 6.00
CN(c1nc(C(=O)Nc2cccc(F)c2)c(O)c(=O)n1C)C(c1ccccc1)c1ccccc1 [Example 16, 2-(benzhydryl(methyl)amino)-N-(3-fluorophenyl)-5-hydroxy-1-methyl-6-oxo-1,6-dihydropyrimidine-4-carboxamide]	> 7.00	> 6.00
CN(c1nc(C(=O)NCC(F)(F)F)c(O)c(=O)n1C)C(c1ccccc1)c1ccccc1 [Example 1, 2-(benzhydryl(methyl)amino)-5-hydroxy-1-methyl-6-oxo-N-(2,2,2-trifluoroethyl)-1,6-dihydropyrimidine-4-carboxamide]	5.00 to 6.00	4.00 to 5.00
CN(c1nc(C(=O)Nc2cncnc2)c(O)c(=O)n1C)C(c1ccccc1)c1ccccc1 [Example 26, 2-(benzhydryl(methyl)amino)-5-hydroxy-1-methyl-6-oxo-N-(pyrimidin-5-yl)-1,6-dihydropyrimidine-4-carboxamide]	5.00 to 6.00	5.00 to 6.00
CN(c1nc(C(=O)Nc2ccc(F)cc2)c(O)c(=O)n1C)[C@@H](c1ccccc1)c1ccccc1Cl [Example 30, (S)-2-(((2-chlorophenyl)(phenyl)methyl)(methyl)amino)-N-(4-fluorophenyl)-5-hydroxy-1-methyl-6-oxo-1,6-dihydropyrimidine-4-carboxamide]	6.00 to 7.00	> 6.00
CCNC(=O)c1nc(N(C)C(c2ccccc2)c2ccccc2)n(C)c(=O)c1O [Example 10, 2-(benzhydryl(methyl)amino)-N-ethyl-5-hydroxy-1-methyl-6-oxo-1,6-dihydropyrimidine-4-carboxamide]	5.00 to 6.00	4.00 to 5.00
C=C(C)CNC(=O)c1nc(N(C)C(c2ccccc2)c2ccccc2)n(C)c(=O)c1O [Example 5, 2-(benzhydryl(methyl)amino)-5-hydroxy-1-methyl-N-(2-methylallyl)-6-oxo-1,6-dihydropyrimidine-4-carboxamide]	5.00 to 6.00	4.00 to 5.00
CN(c1nc(C(=O)Nc2ccc(F)c(F)c2)c(O)c(=O)n1C)C(c1ccccc1)c1ccccc1 [Example 20, 2-(benzhydryl(methyl)amino)-N-(3,4-difluorophenyl)-5-hydroxy-1-methyl-6-oxo-1,6-dihydropyrimidine-4-carboxamide]	6.00 to 7.00	> 6.00
CN(c1nc(C(=O)Nc2c(F)cccc2F)c(O)c(=O)n1C)C(c1ccccc1)c1ccccc1 [Example 19, 2-(benzhydryl(methyl)amino)-N-(2,6-difluorophenyl)-5-hydroxy-1-methyl-6-oxo-1,6-dihydropyrimidine-4-carboxamide]	5.00 to 6.00	4.00 to 5.00
